Experimental data from ChEMBL document CHEMBL1125852, “Synthesis of 4-Amino-1-(-D-ribofuranosyl)pyrrolo[2,3-d]pyridazine; an entry into a novel series of adenosine analogs” (1991).
The source made the active and inactive calls. No cut-off for these calls is given here.

Key:
[1] = system: Human betaherpesvirus 5; assay: Compound was tested for cytotoxicity against human cytomegalo virus at 100 uM; NA - no activity; format: functional, organism-based
[2] = system: Human betaherpesvirus 5; assay: Compound was tested for complete inhibition of growth rate against human cytomegalo virus; format: functional

`Nc1nncc2c1ccn2C1O[C@H](CO)[C@@H](O)[C@H]1O` (some centres not stated) was tested, and the Activity [1] was “inactive” and the Inhibition [2] was 0.043 µM.
